{"source": "patent US11739069B2", "about": "“Modulators of resistant androgen receptor” (priority 2012, dated 2023)", "key": {"[1]": {"molecular_target": "T1, AR (Homo sapiens, UniProt P10275, DEL79-80/DUP473-473)", "T1 construct": "expressed in transfected cells; host or cells: CV1 cells", "T1 sequence (P10275 with tags, fused parts or gaps DEL79-80/DUP473-473)": "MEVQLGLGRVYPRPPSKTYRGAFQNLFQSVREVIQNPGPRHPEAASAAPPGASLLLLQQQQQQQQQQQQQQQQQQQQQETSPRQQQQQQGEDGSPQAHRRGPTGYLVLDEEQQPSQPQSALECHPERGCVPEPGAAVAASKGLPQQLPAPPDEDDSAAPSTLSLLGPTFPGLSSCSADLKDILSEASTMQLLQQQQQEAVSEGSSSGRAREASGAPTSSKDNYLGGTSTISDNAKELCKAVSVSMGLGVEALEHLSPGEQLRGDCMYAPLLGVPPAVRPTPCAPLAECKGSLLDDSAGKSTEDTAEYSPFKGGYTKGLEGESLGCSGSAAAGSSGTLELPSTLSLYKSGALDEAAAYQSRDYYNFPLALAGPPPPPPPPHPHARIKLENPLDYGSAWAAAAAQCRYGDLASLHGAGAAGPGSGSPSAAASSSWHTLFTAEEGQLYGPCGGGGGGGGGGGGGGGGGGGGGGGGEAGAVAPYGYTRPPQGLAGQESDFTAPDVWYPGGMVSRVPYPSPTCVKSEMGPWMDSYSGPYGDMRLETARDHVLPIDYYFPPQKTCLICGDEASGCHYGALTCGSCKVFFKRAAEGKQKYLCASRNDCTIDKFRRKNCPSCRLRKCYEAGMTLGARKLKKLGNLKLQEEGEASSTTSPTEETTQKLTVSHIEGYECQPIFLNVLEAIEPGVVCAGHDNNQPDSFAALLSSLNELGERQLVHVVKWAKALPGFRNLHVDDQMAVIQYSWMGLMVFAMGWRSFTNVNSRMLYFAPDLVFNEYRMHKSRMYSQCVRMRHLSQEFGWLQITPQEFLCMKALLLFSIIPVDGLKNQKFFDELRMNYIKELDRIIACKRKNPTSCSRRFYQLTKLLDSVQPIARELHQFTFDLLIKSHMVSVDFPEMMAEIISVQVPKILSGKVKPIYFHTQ", "test": "AR luciferase reporter assay, competition with DHT (FIG. 25)", "type": "cell-based", "method": "(§1) Compounds of the present invention were assayed in an in vitro AR luciferase reporter assay reporter assay, which can be used to determine the effect of compounds on AR transcriptional activity. CV1 cells were engineered to express an AR-regulated luciferase reporter, such that luciferase expression indicates AR transcriptional activity. A representative procedure for this assay follows.\n(§2) CV1 cells (10^6 cells/10 cm plate) were cotransfected with 50 ng of SV40 Renilla Luciferase, 5 ug of ARE(4X)-Luciferase, and […] of one pWZL-AR expression construct using Lipofectamine 2000 (Invitrogen). Transfection media was removed 4-6 hours later and replaced with phenol red free DME-HG containing 10% charcoal stripped serum. The following day each plate was split into 24- or 48-well plates, in 10% CSS media, containing the indicated drugs in triplicate. Twenty-four to forty-eight hours later, luciferase activity was assayed using Dual-Luciferase Reporter Assay System (Promega) on a 96-well luminometer (Turner Biosystems). In some embodiments, a provided compound is considered to be a modulator of a tested AR if it results in similar effects on induced expression of luciferase in the luciferase reporter assay as compared with a reference androgen or anti-androgen."}, "[2]": {"molecular_target": "T2, AR F876L (Homo sapiens, UniProt P10275, DEL79-80/DUP473-473/F877L)", "T2 construct": "expressed in transfected cells", "T2 sequence (P10275 with tags, fused parts or gaps DEL79-80/DUP473-473/F877L)": "T1 sequence (P10275 with tags, fused parts or gaps DEL79-80/DUP473-473) with F876L", "test": "AR signaling and PARP cleavage in cells expressing AR F876L (FIG. 27)", "type": "cell-based"}, "[3]": {"molecular_target": "T2, AR F876L", "test": "AR luciferase reporter assay, AR F876L versus AR WT (FIG. 26)", "type": "cell-based", "method": "as §1, §2"}, "[4]": {"tested_on": "AR WT", "test": "AR signaling and PARP cleavage in cells expressing AR WT (FIG. 27)", "type": "cell-based"}, "[5]": {"tested_on": "VCaP cells expressing mutant F876L androgen receptor", "test": "In vitro cell viability assay, VCaP cells expressing mutant F876L AR (FIG. 17)", "type": "cell-based"}, "[6]": {"tested_on": "CWR22PC cells expressing wild type androgen receptor", "test": "In vitro cell viability assay (CellTiterGLO), CWR22PC cells expressing wild-type AR (FIG. 18)", "type": "cell-based", "details": "10 uM, days 1, 4, 7", "method": "(§3) Compounds of the present invention were also assayed in an in vitro cell viability assay in CWR22PC cancer cells. A representative procedure follows. CWR22PC cells ectopically expressing wild-type AR or AR F876L, cultured in full-serum containing media, were treated with vehicle (DMSO) or 10 uM of enzalutamide or compound I-1. CellTiterGLO assay was performed on days 1, 4, and 7 to determine cell viability. Results of a cell viability assay in CWR22PC cells are depicted in FIG. 18. On the y-axis RLU means relative light units. More light […] means more viable cells. In some embodiments, a provided compound is considered to be a modulator of a tested AR if it results in similar effects on cell viability as compared with a reference androgen or anti-androgen."}, "[7]": {"tested_on": "CWR22PC cells expressing mutant F876L androgen receptor", "test": "In vitro cell viability assay (CellTiterGLO), CWR22PC cells expressing AR F876L (FIG. 18)", "type": "cell-based", "details": "10 uM, days 1, 4, 7", "method": "as §3"}, "[8]": {"tested_on": "VCaP cells expressing wild type androgen receptor", "test": "In vitro cell viability assay, VCaP cells expressing wild type AR (FIG. 17)", "type": "cell-based"}, "[9]": {"molecular_target": "AR WT", "details": "LNCaP cells ectopically expressing AR WT; compared with AR F876L cells", "procedure": "The cells were propagated in RPMI media supplemented with 10% CSS (charcoal-stripped, dextran-treated fetal bovine serum). Cells were trypsinized, washed in PBS, and triplicate cell samples were mixed with 20,000 cpm 18F-FDHT and increasing amounts of cold competitor (0.1 nM to 10 uM). The solutions were shaken on an orbital shaker at ambient temperature, and after 1 hour the cells were isolated and washed with ice-cold Tris-buffered saline using a Brandel cell harvester (Gaithersburg, Md.). All the isolated cell samples were counted using a scintillation counter, with appropriate standards of total activity and blank controls, and the specific uptake of ^18F-FDHT determined."}, "[10]": {"molecular_target": "T3, mutant AR T877A (Homo sapiens, UniProt P10275, DEL79-80/DUP473-473/T878A)", "T3 sequence (P10275 with tags, fused parts or gaps DEL79-80/DUP473-473/T878A)": "T1 sequence (P10275 with tags, fused parts or gaps DEL79-80/DUP473-473) with T877A", "details": "Ozers et al., Biochemistry (2007) 46, 683; cited from earlier work"}, "[11]": {"molecular_target": "T3, mutant AR T877A", "details": "cited from earlier work"}}, "note": "Positions count from the first letter of the chain named. Entries after “also recorded” stand apart in the source; their conditions may differ.", "data": [{"smiles": "CNC(=O)c1ccc(N2C(=S)N(c3ccc(C#N)c(C(F)(F)F)c3)C(=O)[C@@]23CCCC(C)(C)C3)cc1F", "note": "(stereo in doubt) [Compound I-1, 4-(3-(4-cyano-3-(trifluoromethyl)phenyl)-7,7-dimethyl-4-oxo-2-thioxo-1,3-diazaspiro[4.5]decan-1-yl)-2-fluoro-N-methylbenzamide]", "values": [{"measurement": "competition with dihydrotestosterone (DHT) for AR binding and induction of AR-regulated luciferase", "setting": "[1]", "result": "effectively competes with dihydrotestosterone (DHT)"}, {"measurement": "induction of PARP cleavage", "setting": "[2]", "result": "induce PARP cleavage"}, {"measurement": "inhibition of AR signaling", "setting": "[2]", "result": "inhibit AR signaling"}, {"measurement": "potency as agonist for AR F876L compared with AR WT", "setting": "[3]", "result": "more potent agonist for AR F876L than AR WT"}, {"measurement": "induction of PARP cleavage", "setting": "[4]", "result": "induce PARP cleavage"}, {"measurement": "inhibition of AR signaling", "setting": "[4]", "result": "inhibit AR signaling"}, {"measurement": "ability to kill or inhibit the growth of cells", "setting": "[5]", "result": "kill or inhibit the growth of VCaP cells"}, {"measurement": "ability to kill or inhibit the growth of cells", "setting": "[6]", "result": "kill or inhibit the growth of CWR22PC cells"}, {"measurement": "ability to kill or inhibit the growth of cells", "setting": "[7]", "result": "kill or inhibit the growth of CWR22PC cells"}, {"measurement": "ability to kill or inhibit the growth of cells", "setting": "[8]", "result": "kill or inhibit the growth of VCaP cells"}]}, {"smiles": "C[C@]12CCC(=O)C[C@@H]1CC[C@@H]1[C@@H]2CC[C@]2(C)[C@@H](O)CC[C@@H]12", "note": "[DHT, dihydrotestosterone]", "values": [{"measurement": "IC50 for displacement of 18F-FDHT", "setting": "[9]", "result": "comparable IC50"}]}, {"smiles": "CC(C)(O)C(=O)Nc1ccc([N+](=O)[O-])c(C(F)(F)F)c1", "note": "[hydroxyflutamide]", "values": [{"measurement": "binding affinity to mutant AR T877A compared with AR WT", "setting": "[10]", "result": "higher affinity"}, {"measurement": "agonist activity on mutant AR", "setting": "[11]", "result": "act as AR agonists; also recorded: confers agonism"}]}]}
